Experiments:
MASP-2 (CCP1-CCP2-SP) = MASP-2 (CCP1-CCP2-SP) (Homo sapiens (Human), UniProt O00187); test: biochemical; assay type: biochemical; settings: for MASP-2 vs. thrombin selectivity: MASP-2 inhibition versus thrombin; for Ki: read-out: MASP-2 Ki
human α-thrombin = human α-thrombin (Homo sapiens (Human), UniProt P00734); test: Enzymatic assay for thrombin (Boc-VPR-AMC substrate); assay type: biochemical; settings: read-out: Thrombin Ki

Chain of MASP-2 (CCP1-CCP2-SP) (O00187 445-686): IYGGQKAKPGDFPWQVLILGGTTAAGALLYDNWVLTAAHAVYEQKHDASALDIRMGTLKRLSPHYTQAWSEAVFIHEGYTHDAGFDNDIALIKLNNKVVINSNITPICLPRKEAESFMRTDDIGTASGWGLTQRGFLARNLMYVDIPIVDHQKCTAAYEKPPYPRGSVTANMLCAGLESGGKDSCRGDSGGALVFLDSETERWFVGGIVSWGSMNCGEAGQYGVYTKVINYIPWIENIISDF

SMILES	MASP-2 vs. thrombin selectivity (MASP-2 (CCP1-CCP2-SP))	Ki (MASP-2 (CCP1-CCP2-SP)) [nM]	Ki (human α-thrombin) [nM]
N=C(N)c1ccc(CNC(=O)[C@@H]2CCCN2C(=O)[C@H](N)C2CCCCC2)cc1 [compound 1027]	−− (less than 1.0-fold)	< 500	< 500
N=C(N)c1ccc(CNC(=O)[C@@H]2CCN2C(=O)[C@H](N)CCc2ccccc2)cc1 [compound 1038]	* (1.0 to 5.0-fold)	< 500	< 500
C[C@H](NC(=O)[C@H](N)CCc1ccccc1F)C(=O)NCc1ccc(C(=N)N)cc1 [compound 1049]	** (5.0 to 25-fold)	< 500	< 500
N=C(N)c1ccc(CNC(=O)[C@@H]2CCN2C(=O)[C@H](N)C2Cc3ccccc3C2)cc1 [compound 1058, (S)-1-((R)-2-Amino-2-(2,3-dihydro-1H-inden-2-yl)acetyl)-N-(4-carbamimidoylbenzyl)azetidine-2-carboxamide]	−− (less than 1.0-fold)	< 500	< 500
COc1ccc(CC[C@@H](N)C(=O)N[C@@H](C)C(=O)NCc2ccc(C(=N)N)cc2)cc1 [compound 1076]	** (5.0 to 25-fold)	< 500	< 500
C[C@H](NC(=O)[C@H](N)CCc1ccccc1Cl)C(=O)NCc1ccc(C(=N)N)cc1 [compound 1082]	* (1.0 to 5.0-fold)	< 500	< 500
C[C@H](NC(=O)[C@H](N)CCc1ccc(F)cc1F)C(=O)NCc1ccc(C(=N)N)cc1 [compound 1084]	** (5.0 to 25-fold)	< 500	< 500
C[C@H](NC(=O)[C@H](N)CCc1ccc(F)c(F)c1)C(=O)NCc1ccc(C(=N)N)cc1 [compound 1085]	** (5.0 to 25-fold)	< 500	< 500
C[C@H](NC(=O)[C@H](N)CCc1cc(F)ccc1F)C(=O)NCc1ccc(C(=N)N)cc1 [compound 1086]	** (5.0 to 25-fold)	< 500	< 500
C[C@H](NC(=O)[C@H](N)CCc1cc(F)cc(F)c1)C(=O)NCc1ccc(C(=N)N)cc1 [compound 1087]	** (5.0 to 25-fold)	< 500	< 500
C[C@H](NC(=O)[C@H](N)Cc1ccc2ccccc2c1)C(=O)NCc1ccc(C(=N)N)cc1 [compound 1093]	−− (less than 1.0-fold)	< 500	< 500
C[C@@H](C(=O)NCc1ccc(C(=N)N)cc1)N(C)C(=O)[C@H](NCC(=O)O)C1CCCCC1 [compound 1107]	−− (less than 1.0-fold)	< 500	< 500
C[C@H](NC(=O)[C@@H](CCc1ccccc1)NCC(=O)O)C(=O)NCc1ccc(C(=N)N)cc1 [compound 1110]	* (1.0 to 5.0-fold)	< 500	< 500
COc1ccc(CC[C@@H](N)C(=O)N[C@@H](C)C(=O)NCc2ccc(C(=N)N)cc2)c(OC)c1 [compound 1111]	* (1.0 to 5.0-fold)	< 500	< 500
COc1cc(CC[C@@H](N)C(=O)N[C@@H](C)C(=O)NCc2ccc(C(=N)N)cc2)cc(OC)c1 [compound 1112]	** (5.0 to 25-fold)	< 500	< 500
C[C@H](NC(=O)[C@H](N)CCc1cccc(C(F)(F)F)c1)C(=O)NCc1ccc(C(=N)N)cc1 [compound 1120]	** (5.0 to 25-fold)	< 500	< 500
C[C@H](NC(=O)[C@@H](CCc1ccccc1)NC1CCCC1)C(=O)NCc1ccc(C(=N)N)cc1 [compound 1122]	−− (less than 1.0-fold)	< 500	< 500
N=C(N)c1ccc(CNC(=O)[C@@H]2CCN2C(=O)[C@@H](CCc2ccccc2)NCC(=O)O)cc1 [compound 1124]	−− (less than 1.0-fold)	< 500	< 500
